# Measurements taken from patent US6437127B1, “Substituted cycloalkenes and their use as microbices, especially as fungicides” (Bayer Aktiengesellschaft, priority 1995, dated 2002).
# What was measured:
# [1] = tested on: Pseudocercosporella herpotrichoides; experiment: Pseudocercosporella herpotrichoides test (wheat)/protective; format: in vivo; conditions: protective, application rate 250 g/ha, evaluation 21 days after inoculation
# Procedure: Pseudocercosporella Herpotrichoides Test (Wheat)/Protective Solvent: 10 parts by weight of N-methyl-pyrrolidone Emulsifier: 0.6 parts by weight of alkylaryl polyglycol ether To produce a suitable preparation of active compound, 1 part by weight of active compound is mixed with the stated amounts of solvent and emulsifier, and the concentrate is diluted with water to the desired concentration. To test for protective activity, young plants are sprayed with the preparation of active compound at the stated application rate. After the spray coating has dried on, the stem bases of the plants are inoculated with spores of Pseudocercosporella herpotrichoides. The plants are placed in a greenhouse at a temperature of about 10° C. and a relative atmospheric humidity of about 80%. Evaluation is carried out 21 days after the inoculation.
# [2] = tested on: Erysiphe graminis. f. sp. tritici; experiment: Erysiphe test (wheat)/curative; format: in vivo; conditions: curative, sprayed 48 hours after inoculation, application rate 250 g/ha, evaluation 7 days after inoculation
# Procedure: Erysiphe Test (Wheat)/Curative Solvent: 10 parts by weight of N-methyl-pyrrolidone Emulsifier: 0.6 parts by weight of alkylaryl polyglycol ether To produce a suitable preparation of active compound, 1 part by weight of active compound is mixed with the stated amounts of solvent and emulsifier, and the concentrate is diluted with water to the desired concentration. To test for curative activity, young plants are dusted with spores of Erysiphe graminis. f. sp. tritici. 48 hours after the inoculation, the plants are sprayed with the preparation of active compound at the stated application rate. The plants are placed in a greenhouse at a temperature of about 20° C. and a relative atmospheric humidity of about 80%, in order to promote the development of mildew […]. Evaluation is carried out 7 days after the inoculation.
structure (smiles),measurement,setting,value
CNC(=O)C(=NOC)C1=C(/C=C/c2ccccc2)CCC1 [compound (1)],efficacy,[1],90%
same,efficacy,[2],75%
same,melting point,,135 to 140 °C
